Earlier results, collected in US10925895B2, “Composition and method of using medicament for treatment of cancers and tumors” (priority 2014, dated 2021).
Read-outs that look alike come from different tables or passages of the source.

SMILES | effectiveness against Enterococcus faecalis (Enterococcus faelicalis) | effectiveness as tissue dissolving agent (organic tissue; 5.25% for 40 minutes) | effectiveness as tissue dissolving agent (organic tissue; at 1.3-2.5%)
[Ca+2].[OH-].[OH-] [Calcium hydroxide, calcium hydroxide] | ineffective |  | 
OCl [Sodium hypochlorite, sodium hypochlorite] | not effective | highly effective | ineffective
